What all share (assay type): cell-based
The target in assay [1] is proteins of HEK293T cells transiently overexpressing caspase-6 (Homo sapiens, UniProt P31943). Particulars: exp_ref Probe; protein HNRNPH1 (P31943); analysis C6.
In assay [2] the target is T1, proteins of HEK293T cells transiently overexpressing caspase-6 (Homo sapiens, UniProt P55060).
T1 sequence (P55060 1-971): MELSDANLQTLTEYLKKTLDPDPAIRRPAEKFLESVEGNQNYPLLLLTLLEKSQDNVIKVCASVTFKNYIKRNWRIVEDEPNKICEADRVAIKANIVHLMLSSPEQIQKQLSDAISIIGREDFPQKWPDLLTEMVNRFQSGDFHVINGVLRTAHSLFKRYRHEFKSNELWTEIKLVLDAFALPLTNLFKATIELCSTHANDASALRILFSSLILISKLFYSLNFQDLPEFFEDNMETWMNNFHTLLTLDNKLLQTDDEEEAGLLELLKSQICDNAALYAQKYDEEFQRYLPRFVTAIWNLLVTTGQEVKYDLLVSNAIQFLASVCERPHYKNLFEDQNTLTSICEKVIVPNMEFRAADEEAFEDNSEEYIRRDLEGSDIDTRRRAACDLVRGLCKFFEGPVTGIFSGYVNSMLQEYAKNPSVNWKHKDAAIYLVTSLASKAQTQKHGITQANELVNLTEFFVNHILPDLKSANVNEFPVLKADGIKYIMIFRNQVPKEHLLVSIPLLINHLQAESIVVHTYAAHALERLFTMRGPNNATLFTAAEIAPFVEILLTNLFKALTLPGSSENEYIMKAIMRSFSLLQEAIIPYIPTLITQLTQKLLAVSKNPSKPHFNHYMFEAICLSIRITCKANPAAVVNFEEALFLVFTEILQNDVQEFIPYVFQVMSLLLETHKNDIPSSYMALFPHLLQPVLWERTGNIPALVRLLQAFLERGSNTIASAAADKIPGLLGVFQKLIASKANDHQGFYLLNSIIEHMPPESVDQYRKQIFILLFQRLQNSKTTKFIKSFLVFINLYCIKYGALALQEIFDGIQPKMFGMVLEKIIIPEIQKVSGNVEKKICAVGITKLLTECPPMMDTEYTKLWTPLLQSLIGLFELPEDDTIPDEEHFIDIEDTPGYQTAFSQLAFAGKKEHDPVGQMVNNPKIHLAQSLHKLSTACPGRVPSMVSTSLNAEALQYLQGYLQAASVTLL
Particulars: protein CSE1L (P55060).

Assay [3] addresses proteins of HEK293T cells transiently overexpressing caspase-6 (Homo sapiens, UniProt Q16881). Particulars: exp_ref Probe; protein TXNRD1 (Q16881); analysis C6.
Assay [4] addresses proteins of HEK293T cells transiently overexpressing caspase-6 (Homo sapiens, UniProt P27694). Particulars: Probe; protein RPA1 P27694.
Assay [5] concerns the target T2, proteins of HEK293T cells transiently overexpressing caspase-6 (Homo sapiens, UniProt O60506).
T2 sequence (O60506 1-623): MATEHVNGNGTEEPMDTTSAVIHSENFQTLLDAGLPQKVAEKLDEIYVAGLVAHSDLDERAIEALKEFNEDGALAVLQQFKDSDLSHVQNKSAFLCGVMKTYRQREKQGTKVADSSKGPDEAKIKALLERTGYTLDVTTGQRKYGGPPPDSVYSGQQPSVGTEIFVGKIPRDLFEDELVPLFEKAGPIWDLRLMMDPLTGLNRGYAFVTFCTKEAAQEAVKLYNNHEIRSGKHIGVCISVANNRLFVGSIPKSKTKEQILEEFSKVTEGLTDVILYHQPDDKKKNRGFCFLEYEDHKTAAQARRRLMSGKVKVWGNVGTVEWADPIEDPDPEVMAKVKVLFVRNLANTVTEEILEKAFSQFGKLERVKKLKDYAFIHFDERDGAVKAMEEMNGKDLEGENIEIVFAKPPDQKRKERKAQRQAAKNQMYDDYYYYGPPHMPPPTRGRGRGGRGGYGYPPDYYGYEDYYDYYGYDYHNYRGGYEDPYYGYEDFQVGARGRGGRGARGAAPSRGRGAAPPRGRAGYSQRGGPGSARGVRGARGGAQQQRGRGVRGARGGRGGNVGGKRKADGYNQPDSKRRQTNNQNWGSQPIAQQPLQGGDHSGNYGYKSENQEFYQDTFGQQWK
Particulars: exp_ref Probe; protein SYNCRIP (O60506); analysis C6.

Assay [6] deals with proteins of HEK293T cells transiently overexpressing caspase-6 (Homo sapiens, UniProt P13647). Particulars: Probe; protein KRT5 P13647.
Sequence of proteins of HEK293T cells transiently overexpressing caspase-6 (Homo sapiens, UniProt P13647) (P13647 whole entry): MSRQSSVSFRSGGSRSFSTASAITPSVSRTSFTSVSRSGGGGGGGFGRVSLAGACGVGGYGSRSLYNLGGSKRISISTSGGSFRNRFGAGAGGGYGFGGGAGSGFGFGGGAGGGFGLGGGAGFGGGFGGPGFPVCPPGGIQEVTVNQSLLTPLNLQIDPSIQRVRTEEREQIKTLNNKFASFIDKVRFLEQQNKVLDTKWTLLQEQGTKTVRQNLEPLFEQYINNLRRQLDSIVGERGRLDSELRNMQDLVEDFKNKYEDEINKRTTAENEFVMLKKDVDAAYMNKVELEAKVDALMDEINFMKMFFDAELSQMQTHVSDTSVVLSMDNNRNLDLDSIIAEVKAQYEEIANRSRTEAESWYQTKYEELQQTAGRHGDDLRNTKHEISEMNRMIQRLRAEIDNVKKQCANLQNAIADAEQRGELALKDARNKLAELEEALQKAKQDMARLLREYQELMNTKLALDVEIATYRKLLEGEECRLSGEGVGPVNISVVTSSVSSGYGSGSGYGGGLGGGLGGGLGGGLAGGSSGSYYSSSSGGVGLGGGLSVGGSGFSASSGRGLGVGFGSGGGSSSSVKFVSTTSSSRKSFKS
Assay [7] deals with proteins of HEK293T cells transiently overexpressing caspase-6 (Homo sapiens, UniProt P62241). Particulars: exp_ref Probe; protein RPS8 (P62241); analysis C6.
Assay [8] deals with proteins of HEK293T cells transiently overexpressing caspase-6 (Homo sapiens, UniProt P08238). Particulars: exp_ref Probe; protein HSP90AB1 (P08238); analysis C6.
For assay [9], the target named is proteins of HEK293T cells transiently overexpressing caspase-6 (Homo sapiens, UniProt P49023). Particulars: Probe; protein PXN P49023.
Sequence of proteins of HEK293T cells transiently overexpressing caspase-6 (Homo sapiens, UniProt P49023) (P49023 whole entry): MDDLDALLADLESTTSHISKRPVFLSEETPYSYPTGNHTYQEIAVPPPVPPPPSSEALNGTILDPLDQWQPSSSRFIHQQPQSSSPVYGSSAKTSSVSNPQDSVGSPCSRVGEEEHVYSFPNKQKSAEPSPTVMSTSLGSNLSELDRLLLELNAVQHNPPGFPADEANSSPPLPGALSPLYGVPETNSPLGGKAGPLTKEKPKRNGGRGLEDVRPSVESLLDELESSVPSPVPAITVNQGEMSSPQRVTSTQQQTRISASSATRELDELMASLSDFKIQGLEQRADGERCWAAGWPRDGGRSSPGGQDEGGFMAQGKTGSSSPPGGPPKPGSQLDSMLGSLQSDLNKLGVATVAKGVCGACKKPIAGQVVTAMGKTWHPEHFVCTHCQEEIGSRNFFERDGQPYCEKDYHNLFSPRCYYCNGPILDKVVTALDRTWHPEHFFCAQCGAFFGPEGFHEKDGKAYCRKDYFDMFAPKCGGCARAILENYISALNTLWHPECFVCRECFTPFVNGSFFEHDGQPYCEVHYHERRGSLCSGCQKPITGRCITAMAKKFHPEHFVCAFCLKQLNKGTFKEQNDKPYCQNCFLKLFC
For assay [10], the target named is proteins of HEK293T cells transiently overexpressing caspase-6 (Homo sapiens, UniProt P11586). Particulars: Probe; protein MTHFD1 P11586.
Sequence of proteins of HEK293T cells transiently overexpressing caspase-6 (Homo sapiens, UniProt P11586) (P11586 whole entry): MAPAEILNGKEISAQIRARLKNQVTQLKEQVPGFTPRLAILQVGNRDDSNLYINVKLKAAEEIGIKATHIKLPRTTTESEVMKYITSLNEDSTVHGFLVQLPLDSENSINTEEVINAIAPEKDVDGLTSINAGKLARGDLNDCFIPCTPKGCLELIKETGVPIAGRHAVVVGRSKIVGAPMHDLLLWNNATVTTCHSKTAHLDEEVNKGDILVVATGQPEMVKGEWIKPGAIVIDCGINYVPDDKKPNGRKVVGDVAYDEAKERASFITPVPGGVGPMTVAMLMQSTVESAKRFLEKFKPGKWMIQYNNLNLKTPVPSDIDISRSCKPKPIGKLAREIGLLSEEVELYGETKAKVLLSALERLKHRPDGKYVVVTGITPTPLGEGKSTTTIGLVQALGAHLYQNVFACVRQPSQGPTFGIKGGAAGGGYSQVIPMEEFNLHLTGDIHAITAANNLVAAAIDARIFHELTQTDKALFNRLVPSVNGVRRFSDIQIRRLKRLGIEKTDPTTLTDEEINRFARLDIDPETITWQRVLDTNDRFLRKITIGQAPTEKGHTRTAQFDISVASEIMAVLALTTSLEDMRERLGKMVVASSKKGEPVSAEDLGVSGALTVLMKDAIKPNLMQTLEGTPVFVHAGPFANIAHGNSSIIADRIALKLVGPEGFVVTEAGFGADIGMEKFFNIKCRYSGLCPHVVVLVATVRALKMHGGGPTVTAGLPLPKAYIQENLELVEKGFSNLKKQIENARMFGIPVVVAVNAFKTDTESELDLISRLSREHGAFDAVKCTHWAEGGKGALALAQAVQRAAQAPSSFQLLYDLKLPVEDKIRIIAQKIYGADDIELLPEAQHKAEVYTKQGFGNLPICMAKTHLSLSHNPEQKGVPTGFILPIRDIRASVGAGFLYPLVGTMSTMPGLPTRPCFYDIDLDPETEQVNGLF
For assay [11], the target named is proteins of HEK293T cells transiently overexpressing caspase-6 (Homo sapiens, UniProt P33991). Particulars: exp_ref Probe; protein MCM4 (P33991); analysis C6.
Sequence of proteins of HEK293T cells transiently overexpressing caspase-6 (Homo sapiens, UniProt P33991) (P33991 whole entry): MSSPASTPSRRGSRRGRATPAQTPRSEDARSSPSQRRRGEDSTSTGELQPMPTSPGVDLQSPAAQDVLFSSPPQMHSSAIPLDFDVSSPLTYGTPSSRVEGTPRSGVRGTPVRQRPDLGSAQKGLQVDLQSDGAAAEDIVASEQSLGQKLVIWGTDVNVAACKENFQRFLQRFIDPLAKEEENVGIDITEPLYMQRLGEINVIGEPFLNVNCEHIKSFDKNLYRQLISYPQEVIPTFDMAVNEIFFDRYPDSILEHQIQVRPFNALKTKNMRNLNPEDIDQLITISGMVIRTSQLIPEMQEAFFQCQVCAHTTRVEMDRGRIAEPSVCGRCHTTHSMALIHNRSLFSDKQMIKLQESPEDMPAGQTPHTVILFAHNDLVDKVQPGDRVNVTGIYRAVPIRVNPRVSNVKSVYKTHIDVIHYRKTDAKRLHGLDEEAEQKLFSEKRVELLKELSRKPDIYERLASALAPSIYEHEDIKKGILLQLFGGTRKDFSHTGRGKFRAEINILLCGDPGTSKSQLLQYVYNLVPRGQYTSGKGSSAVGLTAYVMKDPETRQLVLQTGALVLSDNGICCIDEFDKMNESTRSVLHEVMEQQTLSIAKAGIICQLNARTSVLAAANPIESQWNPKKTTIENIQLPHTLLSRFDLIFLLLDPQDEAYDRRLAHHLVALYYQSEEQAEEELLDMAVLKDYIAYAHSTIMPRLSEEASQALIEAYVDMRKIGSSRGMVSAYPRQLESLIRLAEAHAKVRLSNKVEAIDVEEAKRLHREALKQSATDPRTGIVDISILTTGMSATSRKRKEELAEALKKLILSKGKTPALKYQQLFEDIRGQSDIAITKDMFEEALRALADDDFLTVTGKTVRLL
In assay [12] the target is proteins of HEK293T cells transiently overexpressing caspase-6 (Homo sapiens, UniProt P07437). Particulars: protein TUBB (P07437).
Sequence of proteins of HEK293T cells transiently overexpressing caspase-6 (Homo sapiens, UniProt P07437) (P07437 whole entry): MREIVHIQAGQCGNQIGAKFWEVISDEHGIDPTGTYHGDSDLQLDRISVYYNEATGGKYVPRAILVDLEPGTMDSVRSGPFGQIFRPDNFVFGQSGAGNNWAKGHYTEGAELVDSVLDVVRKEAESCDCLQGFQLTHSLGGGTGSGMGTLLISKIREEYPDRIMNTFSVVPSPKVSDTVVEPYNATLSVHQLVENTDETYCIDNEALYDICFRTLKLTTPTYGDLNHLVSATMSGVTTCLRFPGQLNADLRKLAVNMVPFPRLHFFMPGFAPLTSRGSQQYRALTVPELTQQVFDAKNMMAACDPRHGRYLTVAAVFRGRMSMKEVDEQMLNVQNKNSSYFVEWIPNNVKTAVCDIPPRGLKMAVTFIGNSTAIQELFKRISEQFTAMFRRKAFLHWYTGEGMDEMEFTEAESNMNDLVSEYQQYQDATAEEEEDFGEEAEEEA
In assay [13] the target is proteins of HEK293T cells transiently overexpressing caspase-6 (Homo sapiens, UniProt Q16658). Particulars: exp_ref Probe; protein FSCN1 (Q16658); analysis C6.
In assay [14] the target is proteins of HEK293T cells transiently overexpressing caspase-6 (Homo sapiens, UniProt P25788). Particulars: Probe; protein PSMA3 P25788.
Sequence of proteins of HEK293T cells transiently overexpressing caspase-6 (Homo sapiens, UniProt P25788) (P25788 whole entry): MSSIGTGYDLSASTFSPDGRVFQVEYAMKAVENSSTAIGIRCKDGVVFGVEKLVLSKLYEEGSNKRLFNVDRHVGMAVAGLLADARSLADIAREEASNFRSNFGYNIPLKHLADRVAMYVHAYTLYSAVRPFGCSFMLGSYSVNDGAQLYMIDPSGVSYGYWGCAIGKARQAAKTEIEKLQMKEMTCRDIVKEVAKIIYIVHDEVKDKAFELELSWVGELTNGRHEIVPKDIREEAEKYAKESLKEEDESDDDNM

Structures are written as SMILES.

Sequence of proteins of HEK293T cells transiently overexpressing caspase-6 (Homo sapiens, UniProt Q16881) (Q16881 whole entry): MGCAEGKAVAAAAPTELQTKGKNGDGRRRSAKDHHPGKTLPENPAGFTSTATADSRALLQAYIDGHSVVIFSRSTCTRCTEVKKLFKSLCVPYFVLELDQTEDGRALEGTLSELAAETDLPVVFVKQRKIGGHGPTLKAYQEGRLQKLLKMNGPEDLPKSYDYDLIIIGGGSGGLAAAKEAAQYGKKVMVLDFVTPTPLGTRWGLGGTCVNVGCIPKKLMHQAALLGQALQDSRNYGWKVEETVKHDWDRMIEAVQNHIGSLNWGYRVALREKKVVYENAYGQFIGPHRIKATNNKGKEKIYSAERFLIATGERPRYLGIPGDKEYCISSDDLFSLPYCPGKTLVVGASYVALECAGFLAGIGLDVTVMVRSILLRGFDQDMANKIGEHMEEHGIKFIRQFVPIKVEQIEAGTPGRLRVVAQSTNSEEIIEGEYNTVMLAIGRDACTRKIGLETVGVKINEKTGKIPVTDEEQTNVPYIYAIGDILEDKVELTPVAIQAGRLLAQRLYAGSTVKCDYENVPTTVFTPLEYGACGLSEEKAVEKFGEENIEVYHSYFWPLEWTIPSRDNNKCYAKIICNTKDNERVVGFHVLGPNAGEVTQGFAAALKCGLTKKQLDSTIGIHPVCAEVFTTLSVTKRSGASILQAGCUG
Sequence of proteins of HEK293T cells transiently overexpressing caspase-6 (Homo sapiens, UniProt P31943) (P31943 whole entry): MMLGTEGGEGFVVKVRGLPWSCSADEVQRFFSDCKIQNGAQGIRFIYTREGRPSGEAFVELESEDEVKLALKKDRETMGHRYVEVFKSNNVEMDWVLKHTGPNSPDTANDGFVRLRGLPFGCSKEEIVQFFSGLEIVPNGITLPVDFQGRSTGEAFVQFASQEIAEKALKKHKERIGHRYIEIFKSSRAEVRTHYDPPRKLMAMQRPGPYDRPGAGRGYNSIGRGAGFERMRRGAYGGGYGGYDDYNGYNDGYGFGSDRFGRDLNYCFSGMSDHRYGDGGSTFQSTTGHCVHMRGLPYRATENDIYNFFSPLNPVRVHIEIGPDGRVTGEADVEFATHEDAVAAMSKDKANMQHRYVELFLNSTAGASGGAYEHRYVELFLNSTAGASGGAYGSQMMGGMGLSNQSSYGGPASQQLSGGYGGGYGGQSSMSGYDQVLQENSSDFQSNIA

Regarding `C#CCOc1ccc([C@@H]2C[C@@H](C(=O)Nc3ccc(OC(F)(F)F)cc3)CN(S(=O)(=O)C=C)C2)cc1` (relative stereo) [13-t], the enrich.exp.med in assay [1] was -0.1466; in [2] (exp_ref Probe, analysis C6), 1.237; in assay [3], -0.009915; in [4] it was -1.323; in [5], 0.8584; in assay [6] it was -6.8. Moreover, the enrich.exp.med in assay [7] is on record as 0.3889; in [8] it was 0.3736; in [9], -1.7768; in [10] it was -1.178; in assay [11], 1.006; in [12] (exp_ref Probe, analysis C6), 1.184. The enrich.exp.med in [13] is 0.2175; in assay [14], -2.444. Also, the enrich.exp.med.lin in assay [2] worked out at 2.357; in [12] it was 2.273. In addition, the enrich.exp.med.log2 was found to be 1.237 in assay [2] and 1.184 in assay [12].
